Assay results: US20080261977A1, “Pyrimidine Derivatives as Cannabinoid Receptor Modulators” (priority 2004, published 2008)
Counter-ions that a name gives are not always drawn. Like-named read-outs stand apart in the source and are kept apart here.

Biological target: T1, human cannabinoid CB2 receptor (Homo sapiens, UniProt P34972)
T1 construct: expressed in transfected cells; host or cells: Saccharomyces cerevisiae strain MMY23 (cassette integrated at the ura3 locus; chimeric Gpa1/Gαi3)
Experiment: Cannabinoid CB2 receptor agonist activity, yeast (Saccharomyces cerevisiae) cells expressing the receptor, FDGlu fluorescence
Type: cell-based
Conditions: for Emax: read-out: efficacy (Emax relative to HU210) at the cloned human cannabinoid CB2 receptor
Description: The cannabinoid CB2 receptor agonist activity of the compounds of formula (I) was determined in accordance with the following experimental method.
Yeast (Saccharomyces cerevisiae) cells expressing the human cannabinoid CB2 receptor were generated by integration of an expression cassette into the ura3 chromosomal locus of yeast strain MMY23. This cassette consisted of DNA sequence encoding the human CB2 receptor flanked by the yeast GPD promoter to the 5′ end of CB2 and a yeast transcriptional terminator sequence to the 3′ end of CB2. MMY23 expresses a yeast/mammalian chimeric G-protein alpha subunit in which the C-terminal 5 amino acids of Gpa1 are replaced with the C-terminal 5 amino acids of human Gαi3 (as described in Brown et al. (2000), Yeast 16:11-22). Cells were grown at 30° C. in liquid Synthetic Complete (SC) yeast media (Guthrie and Fink (1991), Methods in Enzymology, Vol. 194) lacking uracil, tryptophan, adenine and leucine to late logarithmic phase (approximately 6 OD600/ml).
Agonists were prepared as 10 mM stocks in DMSO. EC50 values (the concentration required to produce 50% maximal response) were estimated using dilutions of between 3- and 5-fold (BiomekFX, Beckman) into DMSO. Agonist solutions in DMSO (1% final assay volume) were transferred into black, clear bottom, microtitre plates from NUNC (96- or 384-well). Cells were suspended at a density of 0.2 OD600/ml in SC media lacking histidine, uracil, tryptophan, adenine and leucine and supplemented with 10 mM 3-aminotriazole, 0.1M sodium phosphate pH 7.0, and […] fluorescein di-β-D-glucopyranoside (FDGlu). This mixture (50 ul per well for 384-well plates, 200 ul per well for 96-well plates) was added to agonist in the assay plates (Multidrop 384, Labsystems). After incubation at 30° C. for 24 hours, fluorescence resulting from degradation of FDGlu to fluorescein due to exoglucanase, an endogenous yeast enzyme produced during agonist-stimulated cell growth, was determined using a Spectrofluor microtitre plate reader (Tecan; excitation wavelength: 485 nm; emission wavelength: 535 nm). Fluorescence was plotted against compound concentration and iteratively curve fitted using a four parameter fit to generate a concentration effect value. Efficacy (Emax) was calculated from the equation
Emax=Max[compound X]−Min[compound X]/Max[HU210]−Min[HU210]×100%
where Max[compound X] and Min[compound X] are the fitted maximum and minimum respectively from the concentration effect curve for compound X, and Max[HU210] and Min[HU210] are the fitted maximum and minimum respectively from the concentration effect curve for (6aR,10aR)-3-1,1′-Dimethylheptyl)-6a,7,10,10a-tetrahydro-1-hydroxy-6,6-dimethyl-6H-dibenzo[b,d]pyran-9-methanol (HU210; available from Tocris). Equieffective molar ratio (EMR) values were calculated from the equation
Where EC50[compound X] is the EC50 of compound X and EC50[HU210] is the EC50 of HU210.

[1] = yeast agonist assay, read-out: EC50 at the cloned human cannabinoid CB2 receptor

T1 sequence (P34972 whole entry): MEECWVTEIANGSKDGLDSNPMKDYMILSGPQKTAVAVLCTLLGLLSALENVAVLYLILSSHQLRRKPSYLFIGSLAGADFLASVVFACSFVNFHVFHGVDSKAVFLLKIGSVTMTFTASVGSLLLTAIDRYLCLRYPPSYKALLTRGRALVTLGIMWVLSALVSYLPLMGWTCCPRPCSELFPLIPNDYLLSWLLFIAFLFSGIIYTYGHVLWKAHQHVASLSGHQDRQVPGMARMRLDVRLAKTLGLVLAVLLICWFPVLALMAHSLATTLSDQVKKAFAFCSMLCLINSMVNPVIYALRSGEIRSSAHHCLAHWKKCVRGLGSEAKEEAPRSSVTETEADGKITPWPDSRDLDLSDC

Emax (yeast agonist assay) [%]	Compound	Emax [%]	EC50 [1] [nM]	EC50 [nM]
	Fc1cccc(Nc2ncc(CN3CCOCC3)c(C(F)(F)F)n2)c1 [Example 56, (3-Fluorophenyl)-(5-morpholin-4-ylmethyl-4-trifluoromethyl-pyrimidin-2-yl)-amine]	> 50	300 to 1000	
	FC(F)(F)c1nc(Nc2cccc(Cl)c2)ncc1CNC1CCCCC1 [Example 43, (3-Chlorophenyl)-(5-cyclohexylaminomethyl-4-trifluoromethyl-pyrimidin-2-yl)-amine]	> 50		300 to 1000
	COCCNCc1cnc(Nc2cccc(Cl)c2)nc1C(C)(C)C [Example 101, (4-tert-Butyl-5-[(2-methoxy-ethylamino)-methyl]-pyrimidin-2-yl}-(3-chloro-phenyl)-aminehydrochloride]	> 50	< 300	
> 50	CCCCNCc1cnc(Nc2cccc(Cl)c2)nc1C(F)(F)F [Example 22, (3-Chlorophenyl)-(5-butylaminomethyl-4-trifluoromethyl-pyrimidin-2-yl)-amine,formate]		< 300	
	FC(F)(F)c1nc(Nc2cccc(Cl)c2)ncc1CN1CCOCC1 [Example 14, (3-Chlorophenyl)-(5-morpholin-4-ylmethyl-4-trifluoromethyl-pyrimidin-2-yl)-amine]	> 50		< 300
> 50	CC(C)CNCc1cnc(Nc2cccc(Cl)c2)nc1C(F)(F)F [Example 11, (3-Chlorophenyl){5-[(isobutylamino)-methyl]-4-trifluoromethyl-pyrimidin-2yl}-amine, formate]		< 300	
	CC(C)CCNCc1cnc(Nc2cccc(F)c2)nc1C(F)(F)F [Example 55, (3-Fluorophenyl)-{5-[(3-methylbutylamino)-methyl]-4-trifluoromethyl-pyrimidin-2-yl}-amine]	> 50	300 to 1000	
> 50	FC(F)(F)c1nc(Nc2cccc(Cl)c2)ncc1CNCC1CCCC1 [Example 10, (3-Chlorophenyl){5-[(cyclopentylmethylamino)-methyl]-4 trifluoromethyl-pyrimidin-2-yl}-amine, formate]		< 300	
	CC(O)CNCc1cnc(Nc2cccc(Cl)c2)nc1C(F)(F)F (centres unmarked) [Example 52, 1-{[2-(3-Chlorophenylamino)-4-trifluoromethyl-pyrimidin-5-ylmethyl]-amino}-propan-2-ol]	> 50	300 to 1000	
> 50	CC(C)CNC(C)c1cnc(Nc2cccc(F)c2)nc1C(F)(F)F (centres unmarked) [Example 87, (3-Fluorophenyl)-[5-(1-isobutylamino-ethyl)-4-trifluoromethyl-pyrimidin-2-yl]-amine]		< 300	
> 50	FC(F)(F)c1nc(Nc2cccc(Cl)c2)ncc1CNCC1CCOCC1 [Example 15, (3-Chlorophenyl)-(5-{[(tetrahydro-pyran-4-ylmethyl)-amino]-methyl}-4-trifluoromethyl-pyrimidin-2-yl)-amine,formate]		< 300	
	FC(F)(F)c1nc(Nc2cccc(Cl)c2)ncc1CN1CCCC1 [Example 40, (3-Chlorophenyl)-(5-pyrrolidin-1-ylmethyl-4-trifluoromethyl-pyrimidin-2-yl)-amine, formate]	> 50	300 to 1000	
	Fc1ccc(CNCc2cnc(Nc3cccc(Cl)c3)nc2C(F)(F)F)cc1 [Example 41, (3-Chlorophenyl)-{5-[(4-fluorobenzylamino)-methyl]-4-trifluoromethyl-pyrimidin-2-yl)-amine,formate]	> 50	300 to 1000	
	FC(F)(F)c1nc(Nc2cccc(Cl)c2)ncc1CNC[C@H]1CCCO1 [Example 49, (3-Chlorophenyl)-(5-{[[(2R)-tetrahydro-furan-2-ylmethyl]-amino]-methyl}-4-trifluoromethyl-pyrimidin-2-yl)-amine,formate]	> 50	300 to 1000	
	Fc1cccc(Nc2ncc(CNCC3CC3)c(C(F)(F)F)n2)c1 [Example 54, (3-Fluorophenyl)-{5-[(cyclopropylmethylamino)-methyl]-4-trifluoromethyl-pyrimidin-2-yl}-amine,formate]	> 50	300 to 1000	
> 50	CC(C)CNCc1cnc(Nc2cccc(Cl)c2)nc1C(C)(C)C [Example 102, (4-tert-Butyl-5-(isobutylamino-methyl)-pyrimidin-2-yl]-(3-chloro-phenyl)-aminehydrochloride]		< 300	
> 50	FC(F)(F)c1nc(Nc2cccc(Cl)c2)ncc1CNCC1CCC1 [Example 18, (3-Chlorophenyl)-{5-[(cyclobutylmethylamino)-methyl]-4-trifluoromethyl-pyrimidin-2-yl}-amine,formate]		< 300	
> 50	FC(F)(F)c1nc(Nc2ccc(Cl)cc2Cl)ncc1CNCC1CCC1 [Example 29, (2,4-Dichlorophenyl)-{5-[(cyclobutylmethylamino)-methyl]-4-trifluoromethyl-pyrimidin-2-yl}-amine,formate]		< 300	
> 50	CC(C)CCNCc1cnc(Nc2cccc(Cl)c2)nc1C(F)(F)F [Example 24, (3-Chlorophenyl)-{5-[(3-methylbutylamino)-methyl]-4-trifluoromethyl-pyrimidin-2-yl}-amine,formate]		< 300	
> 50	FC(F)(F)c1nc(Nc2cccc(Cl)c2)ncc1CNCc1cccnc1 [Example 31, (3-Chlorophenyl)-(5-{[(pyridin-3-ylmethyl)-amino]-methyl}-4-trifluoromethyl-pyrimidin-2-yl}-amine,formate]		< 300	
	CCCCN(C)Cc1cnc(Nc2cccc(Cl)c2)nc1C(F)(F)F [Example 47, {5-[(Butyl-methyl-amino)-methyl]-4-trifluoromethyl-pyrimidin-2-yl}-(3-chlorophenyl)-amine]	> 50	300 to 1000	
	FC(F)(F)c1nc(Nc2cccc(Cl)c2)ncc1CNC1CCCC1 [Example 34]	> 50		< 300
> 50	CC(C)CNC(C)c1cnc(Nc2cccc(Cl)c2)nc1C(F)(F)F (centres unmarked) [Example 92, (3-Chlorophenyl)-[5-(1-isobutylamino-ethyl)-4-trifluoromethyl-pyrimidin-2-yl]-amine, formate]		< 300	
	CC(NCC1CCCCC1)c1cnc(Nc2ccc(Cl)cc2Cl)nc1C(F)(F)F (centres unmarked) [Example 95, (2,4-Dichlorophenyl)-{5-[1-(cyclohexyhnethyl-amino)-ethyl]-4-trifluoromethyl-pyrimidin-2-yl}-amine]	> 50		< 300
	CC(C)CNCc1cnc(Nc2cccc(C#N)c2)nc1C(F)(F)F [Example 59, (3-Cyanophenyl)-{5-[(isobutylamino)-methyl]-4-trifluoromethyl-pyrimidin-2yl}-amine, formate]	> 50	300 to 1000	
	CN(Cc1cnc(Nc2cccc(Cl)c2)nc1C(F)(F)F)CC1CCC1 [Example 51]	> 50	300 to 1000	
	CC(NC1CC1)c1cnc(Nc2cccc(F)c2)nc1C(F)(F)F (centres unmarked) [Example 86, (3-Fluorophenyl)-[5-(1-cyclopropylamino-ethyl)-4-trifluoromethyl-pyrimidin-2-yl]-amine]	> 50		< 300
	CC(c1cnc(Nc2cccc(Cl)c2)nc1C(F)(F)F)N1CCOCC1 (centres unmarked) [Example 93, (3-Chlorophenyl)-[5-(1-morpholin-4-yl-ethyl)-4-trifluoromethyl-pyrimidin-2-yl]-amine]	> 50		< 300
